Source: paper PMC12490239, “Combining BET inhibition with SMAC mimetics restricts tumor growth and triggers immune surveillance in preclinical cancer models” (Cell Reports Medicine, 2025)

Experiments:
Assay in all cases: cells
Design in all cases: CellTiter-Glo 2.0 luminescence proliferation/viability assay, single agents, human tumour cell line panel
[1] = tested on: NCI-H1792; details: Homo sapiens, NCI-H1792, 96 h; single agent; read-out: IC50 SMACm
Method in brief: (§1)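 Human tumour cell lines were seeded into assay plates and held at 37°C with 5% CO2 for twenty-four hours, then exposed in triplicate to rising concentrations of the SMAC mimetic, from 4.5 nM to 10 μM, with DMSO as control. After 96 h, viability was read as CellTiter-Glo2.0 luminescence to derive single-agent IC50 values.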

[2] = tested on: Panc 04.03; details: Homo sapiens, Panc 04.03, 96 h; single agent; read-out: IC50 SMACm
Method in brief: as §1

[3] = tested on: MKN74; details: Homo sapiens, MKN-74, 96 h; single agent; read-out: IC50 SMACm
Method in brief: as §1

[4] = tested on: NCI-H2122; details: Homo sapiens, NCI-H2122, 96 h; single agent; read-out: IC50 SMACm
Method in brief: as §1

[5] = tested on: HCA24; details: 96 h; single agent; read-out: IC50 SMACm
Method in brief: as §1

[6] = tested on: JVE207; details: 96 h; single agent; read-out: IC50 SMACm
Method in brief: as §1

[7] = tested on: MDST8; details: MDST8, 96 h; single agent; read-out: IC50 SMACm
Method in brief: as §1

[8] = tested on: NUGC-3; details: Homo sapiens, NUGC-3, 96 h; single agent; read-out: IC50 SMACm
Method in brief: as §1

[9] = tested on: HCT-15; details: Homo sapiens, HCT-15, 96 h; single agent; read-out: IC50 SMACm
Method in brief: as §1

[10] = tested on: NCI-H2030; details: Homo sapiens, NCI-H2030, 96 h; single agent; read-out: IC50 SMACm
Method in brief: as §1

[11] = tested on: RERF-GC-1B; details: 96 h; single agent; read-out: IC50 SMACm
Method in brief: as §1

[12] = tested on: LS-513; details: Homo sapiens, LS-513, 96 h; single agent; read-out: IC50 SMACm
Method in brief: as §1

[13] = tested on: CCK81; details: 96 h; single agent; read-out: IC50 SMACm
Method in brief: as §1

[14] = tested on: SNU-668; details: SNU668, 96 h; single agent; read-out: IC50 SMACm
Method in brief: as §1

[15] = tested on: BxPC-3; details: Homo sapiens, BXPC-3, 96 h; single agent; read-out: IC50 SMACm
Method in brief: as §1

- IC50 [1]: 4.79 µM
- IC50 [2]: 4.68 µM
- IC50 [3]: 4.57 µM
- IC50 [4]: 5.15 µM
- IC50 [9]: 2.82 µM
- IC50 [10]: 4.29 µM
- IC50 [14]: 6.29 µM
- IC50 [15]: 0.53 µM
SMILES: CN[C@@H](C)C(=O)Nc1ccc(-c2c(-c3cccnc3OC)nc3cc(C)ccn23)c(C#Cc2ccc3c(C)nccc3c2)n1 [SMACm, BI 891065]
- IC50 [5]: 1.73 µM
- IC50 [6]: 7.2 µM
- IC50 [7]: 4.78 µM
- IC50 [8]: 4.59 µM
- IC50 [11]: 4.29 µM
- IC50 [12]: 5.77 µM
- IC50 [13]: 7.34 µM
